Results from patent US8067424B2, “Selective inhibitors for cyclin-dependent kinases” (Emory University, priority 2007, dated 2011).
Read-outs that look alike come from different tables or passages of the source.

Key:
Assay type in all cases: biochemical
CDK2-Cyclin A = CDK2-Cyclin A (Homo sapiens, UniProt P24941); assay: Kinase screen: CDK2/cyclin A assay
Procedure: Generally, the same procedure was used for all assays.
(§1) The basic procedure was to add 0.5 microliters inhibitor/control in DMSO to plate. Fifteen microliters of enzyme/substrate/buffer mix were added and incubated for 5 min. Ten microliters MgATP at the relevant concentration were added and incubated for 30 min. The assay was stopped by adding 5 microliters of 3% orthophosphoric acid. The assay was transferred to a p81 filter plate and read in a scintillation counter of 30 sec/well. Note that this assay procedure was not followed for MKK1, which instead involved a two-step assay, and PKC alpha, which required the addition of lipid vesicles.
CDK2/cyclin A assay: CDK2/cyclin A (5-20 mU diluted in 50 mM Hepes pH 7.5, 1 mM DTT, 0.02% Brij35, 100 mM NaCl) was assayed against Histone H1 in a final volume of 25.5 μl containing 50 mM Hepes pH7.5, 1 mM DTT, 0.02% Brij35, 100 mM NaCl, Histone H1 (1 mg/ml), 10 mM magnesium acetate and 0.02 mM [33P-g-ATP] (500-1000 cpm/pmole) and incubated for 30 min at room temperature. Assays were stopped by addition of 5 μl of 0.5 M (3%) orthophosphoric acid and then harvested onto P81 Unifilter plates with a wash buffer of 50 mM orthophosphoric acid.

DYRK1A = DYRK1A (Homo sapiens, UniProt Q13627); assay: Kinase screen: DYRK 1A assay
Procedure: (§2) Generally, the same procedure was used for all assays. Since the total assay volume was 25.5 microliters, 0.5 microliters of inhibitors at 51× assay concentration were added to the plates before any other addition.
as §1
(§3) (50-1000 cpm/pmole) and incubated for 30 min at room temperature. Assays were stopped by addition of 5 μl of 0.5 M (3%) orthophosphoric acid and then harvested onto P81 Unifilter plates with a wash buffer of 50 mM orthophosphoric acid.

MKK1 = MKK1 (Homo sapiens, UniProt Q02750); assay: Kinase screen: MKK1 assay
Procedure: as §2, §1
After incubating at room temperature for 30 min, 5 μl from the first reaction was pipetted into 20 μl of the second reaction mix containing (final concentration) 25 mM Tris pH 7.5, 0.1 mM EGTA, 0.1 mM Na3VO4, 0.66 mg/ml myelin basic protein (MBP), 10 mM magnesium acetate and 0.05 mM [33P-g-ATP] (500-1000 cpm/pmole) and incubated for 30 min at room temperature. Assays were stopped by addition of 5 μl of 0.5 M (3%) orthophosphoric acid and then harvested onto P81 Unifilter plates with a wash buffer of 50 mM orthophosphoric acid.

AMPK = assay: Kinase screen: AMPK assay; details: for mean activity remaining (as a percentage of the original activity), AMPK: 10 micromolar compound
Procedure: as §2, §1
AMPK assay: AMPK (5-20 mU diluted in 50 mM Hepes pH 7.5, 1 mM DTT, 0.02% Brij35) was assayed against SAMS substrate peptide ([…]) (SEQ ID NO: 11) in a final volume of 25.5 μl containing 50 mM Hepes pH 7.5, 1 mM DTT, 0.02% Brij35, 0.4 mM SAMS peptide, 0.196 mM AMP, 10 mM magnesium acetate and 0.05 mM [33P-g-ATP] (50-1000 cpm/pmole) and incubated for 30 min at room temperature. Assays were stopped by addition of 5 μl of 0.5 M (3%) orthophosphoric acid and then harvested onto P81 Unifilter plates with a wash buffer of 50 mM orthophosphoric acid.

PKBβ = biological target: T1, PKBβ (Homo sapiens, UniProt P31751, S474D); assay: Kinase screen: ΔPH-PKBbeta (S474D) assay
T1 construct: ΔPH-PKBbeta (S474D) assay: ΔPH-PKBbeta-S474D (5-20 mU diluted)
Procedure: as §2, §1
ΔPH-PKBbeta (S474D) assay: ΔPH-PKBbeta-S474D (5-20 mU diluted in 50 mM Tris pH 7.5, 0.1 mM EGTA, 0.1% b-mercaptoethanol, 1 mg/ml BSA) was assayed against a modified Crosstide peptide ([…]) (SEQ ID NO: 4) in a final volume of 25.5 μl containing 50 mM Tris pH 7.5, 0.05% b-mercaptoethanol, 30 μM substrate peptide, 10 mM magnesium acetate and 0.05 mM [33P-g-ATP] (50-1000 cpm/pmole) and incubated for 30 min at room temperature. Assays were stopped by addition of 5 μl of 0.5 M (3%) orthophosphoric acid and then harvested onto P81 Unifilter plates with a wash buffer of 50 mM orthophosphoric acid.

JNK1 = JNK1 (Homo sapiens, UniProt P45983); assay: Kinase screen: JNK1a1/SAPK1c assay
Procedure: as §2, §1
JNK1a1/SAPK1c assay: JNK1a1/SAPK1c (5-20 mU diluted in 50 mM Tris pH 7.5, 0.1 mM EGTA, 1 mg/ml BSA, 0.1% b-mercaptoethanol) was assayed against ATF2 (activating transcription factor in a final volume of 25.5 μl in 50 mM Tris pH 7.5, 0.1 mM EGTA, 0.1% b-Mercaptoethanol, ATF2 (3 μM), 10 mM magnesium acetate and 0.02 mM [33P-g-ATP] (500-1000 cpm/pmole) and incubated for 30 min at room temperature. Assays were stopped by addition of 5 μl of 0.5 M (3%) orthophosphoric acid and then harvested onto P81 Unifilter plates with a wash buffer of 50 mM orthophosphoric acid.

Src = Src (Homo sapiens, UniProt P12931); assay: Kinase screen: Src assay
Procedure: as §2, §1, §3

PIM2 = PIM2 (Homo sapiens, UniProt Q9P1W9); assay: Kinase screen: PIM2 assay
Procedure: as §2, §1
PIM2 assay: 5-20 mU of PIM2 (diluted in 50 mM Tris (pH 7.5), 0.1 mM EGTA, 1 mg/ml BSA, 0.1%, b-Mercaptoethanol) was assayed against substrate peptide ([…]) (SEQ ID NO: 23) in a final volume of 25.5 μl containing 50 mM Tris (pH 7.5), 0.1 mM EGTA, 0.5 mM CaCl2, 0.3 μM calmodulin, 0.1%, b-Mercaptoethanol, 300 μM substrate peptide, 10 mM magnesium acetate and 0.005 mM [33P-g-ATP] (500-1000 cpm/pmole) and incubated for 30 mins at room temperature. Assays were stopped by addition of 5 μl of 0.5M (3%) orthophosphoric acid. Assays were harvested onto P81 Unifilter plates using a wash buffer of 50 mM orthophosphoric acid.

[1] = 10 micromolar compound, read-out: mean activity remaining (as a percentage of the original activity), CDK 2 - Cyelin A
[2] = 10 micromolar compound, read-out: mean activity remaining (as a percentage of the original activity), DYRK 1A
[3] = 10 micromolar compound, read-out: mean activity remaining (as a percentage of the original activity), MKK1
[4] = 0.5 h, 10 micromolar compound, read-out: mean activity remaining (as a percentage of the original activity), PKBb
[5] = 10 micromolar compound, read-out: mean activity remaining (as a percentage of the original activity), JNK1
[6] = 10 micromolar compound, read-out: mean activity remaining (as a percentage of the original activity), Src
[7] = 10 micromolar compound, read-out: mean activity remaining (as a percentage of the original activity), PIM2

Sequence of MKK1 (Q02750 whole entry, species assumed): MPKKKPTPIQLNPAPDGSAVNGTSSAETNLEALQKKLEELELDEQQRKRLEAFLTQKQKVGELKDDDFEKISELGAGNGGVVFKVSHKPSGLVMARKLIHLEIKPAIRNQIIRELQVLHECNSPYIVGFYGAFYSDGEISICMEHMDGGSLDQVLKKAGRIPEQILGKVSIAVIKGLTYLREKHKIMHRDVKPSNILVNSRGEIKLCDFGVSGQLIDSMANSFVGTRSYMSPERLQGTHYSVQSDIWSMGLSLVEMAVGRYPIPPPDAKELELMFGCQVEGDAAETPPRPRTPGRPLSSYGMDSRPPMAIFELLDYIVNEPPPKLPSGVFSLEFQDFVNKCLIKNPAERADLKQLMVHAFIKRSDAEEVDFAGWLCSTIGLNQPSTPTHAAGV
T1 sequence (P31751 120-481 S474D limits assumed, species assumed): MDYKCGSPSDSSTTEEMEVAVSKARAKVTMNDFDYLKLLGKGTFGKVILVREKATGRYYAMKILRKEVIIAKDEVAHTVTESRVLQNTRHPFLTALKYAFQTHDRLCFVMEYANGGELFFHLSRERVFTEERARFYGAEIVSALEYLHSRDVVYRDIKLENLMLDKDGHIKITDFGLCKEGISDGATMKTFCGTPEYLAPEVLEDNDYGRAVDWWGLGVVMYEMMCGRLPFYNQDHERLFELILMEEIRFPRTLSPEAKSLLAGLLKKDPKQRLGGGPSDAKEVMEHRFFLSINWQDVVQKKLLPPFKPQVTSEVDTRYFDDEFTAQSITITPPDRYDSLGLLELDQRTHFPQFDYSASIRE
Sequence of Src (P12931 whole entry, species assumed): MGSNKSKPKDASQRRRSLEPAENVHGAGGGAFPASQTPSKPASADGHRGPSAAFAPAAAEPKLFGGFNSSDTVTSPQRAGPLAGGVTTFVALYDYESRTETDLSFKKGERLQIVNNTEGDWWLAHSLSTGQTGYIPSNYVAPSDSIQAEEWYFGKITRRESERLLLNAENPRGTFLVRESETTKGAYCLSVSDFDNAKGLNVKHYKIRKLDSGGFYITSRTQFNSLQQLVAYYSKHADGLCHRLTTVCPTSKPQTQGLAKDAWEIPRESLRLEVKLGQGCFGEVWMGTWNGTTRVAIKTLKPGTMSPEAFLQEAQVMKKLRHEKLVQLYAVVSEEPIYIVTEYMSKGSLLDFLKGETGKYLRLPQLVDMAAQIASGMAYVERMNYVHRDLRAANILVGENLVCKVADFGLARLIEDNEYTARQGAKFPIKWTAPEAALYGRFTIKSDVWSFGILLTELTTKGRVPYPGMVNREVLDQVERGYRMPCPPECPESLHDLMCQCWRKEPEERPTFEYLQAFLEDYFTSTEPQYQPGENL
Sequence of PIM2 (Q9P1W9 whole entry, species assumed): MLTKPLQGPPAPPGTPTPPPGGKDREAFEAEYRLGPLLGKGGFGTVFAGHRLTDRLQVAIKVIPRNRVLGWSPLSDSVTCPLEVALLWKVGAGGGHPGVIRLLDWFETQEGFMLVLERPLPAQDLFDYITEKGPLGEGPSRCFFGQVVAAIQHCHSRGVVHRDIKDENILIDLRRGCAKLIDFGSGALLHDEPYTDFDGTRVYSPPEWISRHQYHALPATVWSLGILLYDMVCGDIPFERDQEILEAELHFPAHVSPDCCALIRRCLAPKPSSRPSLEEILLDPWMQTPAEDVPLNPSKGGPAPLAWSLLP
Sequence of JNK1 (P45983 1-384 isoform P45983-2, species assumed): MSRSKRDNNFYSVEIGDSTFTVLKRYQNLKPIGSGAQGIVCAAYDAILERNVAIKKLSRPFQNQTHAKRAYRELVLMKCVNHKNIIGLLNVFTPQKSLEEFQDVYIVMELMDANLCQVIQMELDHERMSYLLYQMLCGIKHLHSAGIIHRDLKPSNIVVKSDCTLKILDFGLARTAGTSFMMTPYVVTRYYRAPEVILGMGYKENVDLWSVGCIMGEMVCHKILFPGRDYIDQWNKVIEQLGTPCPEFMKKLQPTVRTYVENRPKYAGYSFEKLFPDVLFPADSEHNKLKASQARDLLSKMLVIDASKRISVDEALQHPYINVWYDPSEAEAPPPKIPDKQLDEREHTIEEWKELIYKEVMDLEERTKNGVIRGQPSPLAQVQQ

Structure (SMILES)	remaining activity at 10 µM (CDK2-Cyclin A; [1])	remaining activity at 10 µM (DYRK1A; [2])	remaining activity at 10 µM (MKK1; [3])	mean activity remaining (as a percentage of the original activity), AMPK (AMPK)	remaining activity at 10 µM (PKBβ; [4])	remaining activity at 10 µM (JNK1; [5])	remaining activity at 10 µM (Src; [6])	remaining activity at 10 µM (PIM2; [7])	also measured
CC(C)c1cnn2c(NCc3ccccc3)cc(NCCCCCCCN)nc12 [BS-181]	–	–	–	–	–	–	–	–	remaining activity at 10 µM (CDK2-Cyclin A; CDK2-Cyclin A, 10 μM, read-out: Mean Remaining Enzyme Activity (%)): 9%; IC50 (CDK2-Cyclin A; kinase screen): 750 nM; remaining activity at 10 µM (DYRK1A; DYRK1A, 10 μM, read-out: Mean Remaining Enzyme Activity (%)): 17%; IC50 (DYRK1A; kinase screen): 2300 nM; remaining activity at 10 µM (MKK1; MKK1, 10 μM, read-out: Mean Remaining Enzyme Activity (%)): 96%; Mean Remaining Enzyme Activity (%) (AMPK; AMPK, 10 μM): 122%; remaining activity at 10 µM (PKBβ; PKBβ, 10 μM, read-out: Mean Remaining Enzyme Activity (%)): 81%; remaining activity at 10 µM (JNK1; JNK1, 10 μM, read-out: Mean Remaining Enzyme Activity (%)): 100%; remaining activity at 10 µM (Src; Src, 10 μM, read-out: Mean Remaining Enzyme Activity (%)): 88%; remaining activity at 10 µM (PIM2; PIM2, 10 μM, read-out: Mean Remaining Enzyme Activity (%)): 102%
C=C[C@H](CO)Nc1cc(NCc2ccccc2)n2ncc(C(C)C)c2n1 [ICEC0065]	3%	30%	107%	85%	109%	95%	112%	93%	–
CC[C@H](CO)Nc1cc(NCc2ccccc2)n2ncc(C(C)C)c2n1 [ICEC0067]	5%	27%	44%	84%	102%	98%	90%	92%	–
CC(C)c1cnn2c(NCc3ccccc3)cc(N[C@@H](CO)[C@H](O)CO)nc12 [ICEC0318, (3S)-3-(7-(Benzylamino)-3-isopropylpyrazolo[1,5-a]pyrimidin-5-ylamino)butane-1,2,4-triol]	–	15%	65%	88%	105%	93%	95%	94%	–
CC(C)c1cnn2c(NCc3ccccc3F)cc(NCCCCCN)nc12 [ICEC-0232]	–	–	–	75%	–	–	–	–	mean activity remaining (as a percentage of the original activity), CDK 2 - Cyelin A (CDK2-Cyclin A; 10 micromolar compound): 9%; mean activity remaining (as a percentage of the original activity), DYRK 1A (DYRK1A; 10 micromolar compound): 11%; mean activity remaining (as a percentage of the original activity), MKK1 (MKK1; 10 micromolar compound): 83%; mean activity remaining (as a percentage of the original activity), PKBb (PKBβ; 10 micromolar compound): 76%; mean activity remaining (as a percentage of the original activity), JNK1 (JNK1; 10 micromolar compound): 87%; mean activity remaining (as a percentage of the original activity), Src (Src; 10 micromolar compound): 96%; mean activity remaining (as a percentage of the original activity), PIM2 (PIM2; 10 micromolar compound): 102%
